The values below come from US12358970B2, “Methods of exogenous drug activation of chemical-induced signaling complexes expressed in engineered cells in vitro and in vivo” (Seattle Children's Hospital, priority 2016, dated 2025).

Assay [1] has as its system IL2R-CISC expressing primary human T-cells. The assay can be described thus: Selective enrichment of IL2R-CISC expressing T cells, flow cytometry of cis-linked GFP/mCherry marker. Type of assay: cell-based. The settings on record: for mCherry positive cells: IL2R-CISC V3 cells, by 15 days culture in the ligand, starting transduced population 64% mCherry positive. As to the method:
Each architecture of IL2R-CISC (i.e. 1210, 1211, and 1233) was cis-linked together with GFP using 2A sequences, and placed under the control of an MND promoter in a lentiviral expression cassette (as schematized in FIG. 5, bottom). Lentiviral particles from each IL2R-CISC architecture were generated and used to transduce primary human T-cells.
Lentiviral particles from each IL2R-CISC architecture were generated and used to transduce primary human T-cells. CD4+ T cells were activated for 60 hours. […] Lentivirus was transduced with or without beads, using 15 μL of IL2R-CISC and 3 μL of MND-GFP control with protamine sulfate at 4 μg/mL (0.5 mL medium) in a 24-well dish. The cells were then spinoculated at 800 g for 30 minutes at 33° C. followed by the addition of 1.5 mL medium after 4 hours of incubation. […] The GFP signal was determined and the IL2R-CISC level of transduced T cells was determined.
The T cell viability was determined and the expression of GFP+ population and IL2R-CISC expression was determined by using anti-FRB antibody and a secondary APC antibody.
For orientation: In flow cytometry, cells or beads pass a laser one at a time.

The test system of assay [2] is IL2R-CISC V3 expressing human CD4+ T cells. The assay can be described thus: Expansion of IL2R-CISC expressing cells in culture (cell numbers). To be noted: for Dose inducing the most robust cell expansion / Cell expansion: 30 days. The class given is cell-based.
The subject of assay [3] is STAT5 phosphorylation in IL2R-CISC expressing T cells. In words: phospho-STAT5 signaling after 20 days of culture. The class given is cell-based, human. The settings on record: mock, GFP and IL2R-CISC cell types.
Assay [4] has as its system Akt activation in IL2R-CISC human CD4+ T cells. The assay can be described thus: Western blot for Akt activation. Type of assay: cell-based. To be noted: 15 days rapamycin 1 nM, 48 h cytokine starvation, stimulation with rapamycin 100 nM for 20 minutes. The protocol: IL2R-CISC human CD4+ T cells were analyzed following 15 days of rapamycin treatment at 1 nM, following by cytokine starvation for 48 hours.
In general terms: Immunoblotting shows a protein as a band on a membrane.

Assay [5] relates to gene targeted CD4+ T cells expressing GFP-FOXP3 and IL2R-CISC V3. In words: Targeted knock-in of MND promoter and CISC into FOXP3 locus, enrichment of gene targeted cells (GFP-FOXP3 flow cytometry). The class given is cell-based. The settings on record: 15 days culture; 10 nM ligand. An excerpt:
The described targeting approach integrates a promoter and both components of an IL2R-CISC V3 into the FOXP3 locus in line with a GFP fusion to the native FOXP3 gene. This architecture is intended to allow for ligand-induced selection of cells which have undergone an accurate gene targeting event.
FIG. 26 depicts a schematic diagram showing an experimental design of targeted knock-in of MND promoter and CISC. This represents an experimental schematic of how a CRISP/Cas9 nuclease is used to induce targeted integration of the cassettes from FIG. 25 into the FOXP3 locus, followed by expansion of the gene targeted cells in the indicated IL2R-CISC ligand.
Following targeted integration into the FOXP3 locus utilizing the indicated approaches (no targeting, or RNP plus each of the cassettes described in FIG. 25), cells were cultured in the indicated conditions for 15 days, and then analyzed by flow cytometry for GFP-FOXP3 expression. […] Flow panels are representative of IL2R-CISC GFP-FOXP3 expression by cells cultured in rapamycin.
Following targeted integration into the FOXP3 locus utilizing the indicated approaches, cells were cultured in the indicated conditions for 15 days, and then analyzed by flow cytometry for GFP-FOXP3 expression.
In addition, the targeted knock-in of MND promoter and CISC was tested to enrich and/or expand gene targeted T cells. […]

Entries after “also recorded” stand apart in the source; their conditions may differ.

On to `CO[C@H]1C[C@@H]2CC[C@@H](C)[C@@](O)(O2)C(=O)C(=O)N2CCCC[C@H]2C(=O)O[C@H]([C@H](C)C[C@@H]2CC[C@@H](O)[C@H](OC)C2)CC(=O)[C@H](C)/C=C(\C)[C@@H](O)[C@@H](OC)C(=O)[C@H](C)C[C@H](C)/C=C/C=C/C=C/1C` [rapamycin, (3S,6R,7E,9R,10R,12R,14S,15E,17E,19E,21S,23S,26R,27R,34aS)-9,10,12,13,14,21,22,23,24,25,26,27,32,33,34,34a-hexadecahydro-9,27-dihydroxy-3-[(1R)-2-[(1S,3R,4R)-4-hydroxy-3-methoxycyclohexyl]-1-methylethyl]-10,21-dimethoxy-6,8,12,14,20,26-hexamethyl-23,27-epoxy-3H-pyrido[2,1-c][1,4] oxaazacyclohentriacontine-1,5,11,28,29 (4H,6H,31H)-pentone], for which the “Enrichment for IL2R-CISC expression read out by cis-linked GFP marker” value in assay [1] (1233 architecture, 4 days post transduction, 2 days in rapamycin alone (1 nM)) is “enriched for IL2R-CISC expression; also recorded: beginning to enrich for IL2R-CISC expression”. In addition, the “Enrichment of the GFP marker” value in assay [1] (1233 architecture, 6 days post transduction, 4 days in rapamycin) is reported as “further enrichment of the GFP marker for 1233”. Besides, the “Enrichment of GFP+ cells” value in assay [1] (1233 architecture, 9 days post transduction, 7 days in rapamycin) is given as “further enrichment of the 1233 GFP+ cells”. Further, the “Cells expressing the 1233 IL2R-CISC enriched to % of the cell population (GFP+)” value in assay [1] (1233 architecture, 17 days post transduction, 15 days culture in rapamycin alone (1 nM)) was found to be 97%. Moreover, the mCherry positive cells in assay [1] is more than 93%. Further, the “Expansion of mCherry positive cell numbers” value in assay [2] (25 days) was “significant rapamycin-induced expansion”. Besides, the “Dose inducing the most robust cell expansion” value in assay [2] (1 nM rapamycin (vs 10 nM)) is reported as “most robust cell expansion”. Further, the Cell expansion entry in assay [2] (rapamycin 1 nM and 10 nM) is on record as “significant rapamycin-induced expansion”. The “Phosphorylation of STAT5 in response to treatment” value in assay [3] was “only IL2R-CISC expressing cells respond to rapamycin with phosphorylation of STAT5”. In addition, the Akt activation entry in assay [4] is on record as “Akt activation”. The “Enrichment of FOXP3 expressing (gene targeted) cells” value in assay [5] was “substantial enrichment of FOXP3 expressing cells”.

On to `CO[C@H]1[C@@H](O)[C@H](C)C[C@H](C)/C=C/C=C/C=C(\C)[C@@H](c2c[nH]c3c(C)cccc23)C[C@@H]2CC[C@@H](C)[C@@](O)(O2)C(=O)C(=O)N2CCCC[C@H]2C(=O)O[C@H]([C@H](C)C[C@@H]2CC[C@@H](O)[C@H](OC)C2)C[C@H](O)[C@H](C)/C=C(\C)[C@H]1O` [AP21967, C-16-(S)-7-methylindolerapamycin], for which the mCherry positive cells in assay [1] is more than 93%. Also, the “CD4+ T cell survival” value in assay [1] (IL2R-CISC V3 construct, in response to AP21967 (FIG. 15)) was “promotes human CD4+ T cell survival”. For the same molecule, the “Dose inducing the most robust cell expansion” value in assay [2] (100 nM AP21967 (vs 10 nM)) is listed as “most robust cell expansion”. Also, the Cell expansion entry in assay [2] (AP21967 10 nM and 100 nM) is “promotes CD4+ T cell proliferation; also recorded: significant AP21967-induced expansion”. Moreover, in assay [5], the “Enrichment of FOXP3 expressing (gene targeted) cells” value is “substantial enrichment of FOXP3 expressing cells”.
